This is an account of results in patent US8835469B2 (Cadila Healthcare Limited, priority 2009, dated 2014).

One experiment has as its system Male C57 mice. As to the kind of experiment: Oral glucose tolerance test (OGTT), overnight fasted. The format is in vivo. Conditions: for % change in glucose levels Vs Control: treated at −30 min, oral glucose load 3 g/kg at 0 min; for % change in glucose levels Vs Control, Mean: Mean over the time points, oral glucose load 3 g/kg. How it is done: Effect of Glucokinase Activators (GKAs) of the Present Invention on Glucose Reduction Determined by Oral Glucose Tolerence Test (OGTT):
Male C57 mice, aged 8-10 weeks were fasted overnight and subjected to the treatment of selected GK activator at time denoted as −30 min. At time 0 min, mice were given oral glucose load of 3 g/kg, and the glucose excursion was observed upto 120 min. The percentage change against the change in glucose levels of control are mentioned in the table 2.

Another experiment concerns the target T1, glucokinase (GK) enzyme (Homo sapiens, UniProt P35557).
T1 sequence (P35557 1-465): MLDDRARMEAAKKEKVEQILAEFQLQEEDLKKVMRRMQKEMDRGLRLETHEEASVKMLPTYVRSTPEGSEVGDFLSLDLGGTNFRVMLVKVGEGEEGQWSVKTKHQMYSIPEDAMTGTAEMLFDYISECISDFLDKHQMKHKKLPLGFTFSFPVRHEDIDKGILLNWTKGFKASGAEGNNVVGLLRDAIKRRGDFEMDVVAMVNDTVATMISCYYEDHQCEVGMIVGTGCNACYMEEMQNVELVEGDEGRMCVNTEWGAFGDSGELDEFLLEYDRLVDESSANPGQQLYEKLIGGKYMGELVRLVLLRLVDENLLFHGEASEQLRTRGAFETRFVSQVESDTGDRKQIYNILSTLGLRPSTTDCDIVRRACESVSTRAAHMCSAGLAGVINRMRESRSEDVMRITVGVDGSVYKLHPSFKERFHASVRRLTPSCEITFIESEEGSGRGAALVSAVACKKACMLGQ
As to the kind of experiment: In-vitro glucokinase (GK) activation assay (coupled with glucose-6-phosphate dehydrogenase, absorbance at 340). The format is biochemical. The note with it: glucose 2.5 mM; for activity at 0.1 µM / activity at 1 µM / activity at 5 µM / activity at 10 µM: read-out: % of GK activity wrt DMSO; for EC50: GK enzyme 0.2 units, ATP 1 mM. The procedure: The compound of the invention was incubated with glucokinase (GK) enzyme (0.2 units) for 10 minutes in assay buffer at 26° C. After incubation, addition of glucose-6-phosphate dehydrogenase (2.5 units), ATP (1 mM) and glucose (2.5 mM). Absorbance is measured at 340 nm for 15 minutes with 10 second interval using UV transparent plate in kinetic mode on Spectramax-190 at 30° C.

`Cc1nnc(-c2ccc(Oc3cc(OC4CCN(C)C4=O)cc(C(=O)Nc4nccs4)c3)cc2)o1` (stereo not drawn) [Example 1, 3-(4-(5-Methyl-1,3,4-oxadiazol-2-yl)phenoxy)-5-(1-methyl-2-oxopyrrolidin-3-yloxy)-N-(thiazol-2-yl)benzamide]: the “% change in glucose levels Vs Control” value was −32.7 ± 2.8% in the experiment with Male C57 mice (0 min Vs −30 min), 3.3 ± 9.7% in the experiment on Male C57 mice (30 min Vs −30 min), −39.5 ± 7.0% with Male C57 mice (60 min Vs −30 min) and −24.3 ± 9.0% in the experiment with Male C57 mice (120 min Vs −30 min). For the same compound, the “% change in glucose levels Vs Control, Mean” value (“% change … Mean” below) in the experiment with Male C57 mice was −23.3%. The activity at 0.1 µM on glucokinase (GK) enzyme (0.1 uM compound) was 276%. Besides, at glucokinase (GK) enzyme (1 uM compound), the activity at 1 µM was determined as 309%. For the same compound, on glucokinase (GK) enzyme (5 uM compound), the activity at 5 µM was found to be 316%. For the same compound, the activity at 10 µM at glucokinase (GK) enzyme (10 uM compound) was 309%. On glucokinase (GK) enzyme, this compound registered an EC50 of 21 nM.
As for `Cc1nnc(-c2ccc(Oc3cc(OC4CCN(C)C4=O)cc(C(=O)Nc4ncc(C)s4)c3)cc2)o1` (stereo not drawn) [Example 2, 3-(4-(5-Methyl-1,3,4-oxadiazol-2-yl)phenoxy)-5-(1-methyl-2-oxopyrrolidin-3-yloxy)-N-(5-methylthiazol-2-yl)benzamide], the “% change in glucose levels Vs Control” value in the experiment on Male C57 mice (0 min Vs −30 min) is reported as −34.5 ± 3.2%; in the experiment with Male C57 mice (30 min Vs −30 min), −13.5 ± 8.8%; in the experiment on Male C57 mice (60 min Vs −30 min), −49.6 ± 11.2%; with Male C57 mice (120 min Vs −30 min) it was −53.2 ± 3.1%. In the experiment with Male C57 mice, the “% change … Mean” value is recorded as −37.7%. Besides, the activity at 0.1 µM at glucokinase (GK) enzyme (0.1 uM compound) worked out at 205%. Besides, on glucokinase (GK) enzyme (1 uM compound), the activity at 1 µM turned out to be 227%. Besides, the activity at 5 µM at glucokinase (GK) enzyme (5 uM compound) came out at 233%. Besides, the activity at 10 µM on glucokinase (GK) enzyme (10 uM compound) is 236%. The same compound returned an EC50 on glucokinase (GK) enzyme of 40 nM.
Regarding `CCOC(=O)Cc1csc(NC(=O)c2cc(Oc3ccc(-c4nnc(C)o4)cc3)cc(OC3CCN(C)C3=O)c2)n1` (stereo not drawn) [Example 3], the “% change in glucose levels Vs Control” value was −18.8 ± 5.8% in the experiment on Male C57 mice (0 min Vs −30 min), −4.1 ± 6.0% with Male C57 mice (30 min Vs −30 min), −3.9 ± 4.3% in the experiment with Male C57 mice (60 min Vs −30 min) and −15.8 ± 3.7% in the experiment on Male C57 mice (120 min Vs −30 min). Moreover, the “% change … Mean” value in the experiment with Male C57 mice was −10.6%. On glucokinase (GK) enzyme (0.1 uM compound), the activity at 0.1 µM worked out at 186%. Further, the activity at 1 µM on glucokinase (GK) enzyme (1 uM compound) stood at 284%. Moreover, the activity at 5 µM at glucokinase (GK) enzyme (5 uM compound) worked out at 312%. Moreover, on glucokinase (GK) enzyme (10 uM compound), the activity at 10 µM is 316%. The compound further registered an EC50 at glucokinase (GK) enzyme of 196 nM.
Turning to `Cc1nnc(-c2ccc(Oc3cc(OC4CCN(C)C4=O)cc(C(=O)Nc4nc(CC(=O)O)cs4)c3)cc2)o1` (stereo not drawn) [Example 4, 2-(2-(3-(4-(5-Methyl-1,3,4-oxadiazol-2-yl)phenoxy)-5-((1-methyl-2-oxopyrrolidin-3-yl)oxy)benzamido)thiazol-4-yl)acetic acid], the “% change in glucose levels Vs Control” value is −23.3 ± 3.1% in the experiment with Male C57 mice (0 min Vs −30 min), −22.1 ± 6.1% in the experiment on Male C57 mice (30 min Vs −30 min), −21.8 ± 5.9% in the experiment with Male C57 mice (60 min Vs −30 min) and −16.7 ± 5.9% with Male C57 mice (120 min Vs −30 min). The “% change … Mean” value with Male C57 mice was −21.0%. In addition, at glucokinase (GK) enzyme (0.1 uM compound), the activity at 0.1 µM was 148%. Besides, the activity at 1 µM at glucokinase (GK) enzyme (1 uM compound) amounted to 273%. Further, on glucokinase (GK) enzyme (5 uM compound), the activity at 5 µM turned out to be 330%. In addition, the activity at 10 µM on glucokinase (GK) enzyme (10 uM compound) came to 322%. The compound further returned an EC50 on glucokinase (GK) enzyme of 320 nM.
As for `Cc1csc(NC(=O)c2cc(Oc3ccc(-c4nnc(C)o4)cc3)cc(OC3CCN(C)C3=O)c2)n1` (stereo not drawn) [Example 13, 3-(4-(5-Methyl-1,3,4-oxadiazol-2-yl)phenoxy)-5-(1-methyl-2-oxopyrrolidin-3-yloxy)-N-(4-methylthiazol-2-yl)benzamide], the “% change in glucose levels Vs Control” value is on record as −38.7 ± 3.5% in the experiment on Male C57 mice (0 min Vs −30 min), −34.5 ± 9.3% with Male C57 mice (30 min Vs −30 min), −48.2 ± 7.5% with Male C57 mice (60 min Vs −30 min) and −60.5 ± 4.5% with Male C57 mice (120 min Vs −30 min). Besides, the “% change … Mean” value in the experiment on Male C57 mice is −45.5%. Further, the activity at 0.1 µM on glucokinase (GK) enzyme (0.1 uM compound) was 234%. In addition, on glucokinase (GK) enzyme (1 uM compound), the activity at 1 µM is 302%. Moreover, on glucokinase (GK) enzyme (5 uM compound), the activity at 5 µM came out at 320%. Further, on glucokinase (GK) enzyme (10 uM compound), the activity at 10 µM worked out at 318%. For the same compound, the midpoint of the response at glucokinase (GK) enzyme, the EC50, lay at 74 nM.
With `Cc1csc(NC(=O)c2cc(Oc3ccc(-c4nnc(C5CC5)o4)cc3)cc(OC3CCN(C)C3=O)c2)n1` (stereo not drawn) [Example 33, 3-(4-(5-Cyclopropyl-1,3,4-oxadiazol-2-yl)phenoxy)-5-((1-methyl-2-oxopyrrolidin-3-yl)oxy)-N-(4-methylthiazol-2-yl)benzamide], the activity at 0.1 µM on glucokinase (GK) enzyme (0.1 uM compound) amounted to 201%. Moreover, on glucokinase (GK) enzyme (1 uM compound), the activity at 1 µM was 309%. Besides, the activity at 5 µM at glucokinase (GK) enzyme (5 uM compound) came out at 383%. Further, on glucokinase (GK) enzyme (10 uM compound), the activity at 10 µM came to 375%.
With `CN1CCC(Oc2cc(Oc3ccc(-c4nnc(-c5ccccc5)o4)cc3)cc(C(=O)Nc3nccs3)c2)C1=O` (stereo not drawn) [Example 34, 3((1-Methyl-2-oxopyrrolidin-3-yl)oxy)-5-(4-(5-phenyl-1,3,4-oxadiazol-2-yl)phenoxy)-N-(thiazol-2-yl)benzamide], the activity at 0.1 µM at glucokinase (GK) enzyme (0.1 uM compound) came to 182%. In addition, the activity at 1 µM at glucokinase (GK) enzyme (1 uM compound) is 350%. For the same compound, the activity at 5 µM on glucokinase (GK) enzyme (5 uM compound) turned out to be 396%. Moreover, the activity at 10 µM on glucokinase (GK) enzyme (10 uM compound) came out at 337%.
As for `CCN1CCC(Oc2cc(Oc3ccc(-c4nnc(C)o4)cc3)cc(C(=O)Nc3nccs3)c2)C1=O` (stereo not drawn) [Example 35, 3((1-Ethyl-2-oxopyrrolidin-3-yl)oxy)-5-(4-(5-methyl-1,3,4-oxadiazol-2-yl)phenoxy)-N-(thiazol-2-yl)benzamide], the activity at 0.1 µM at glucokinase (GK) enzyme (0.1 uM compound) amounted to 181%. At glucokinase (GK) enzyme (1 uM compound), the activity at 1 µM worked out at 322%. The activity at 5 µM at glucokinase (GK) enzyme (5 uM compound) was 382%. Also, the activity at 10 µM at glucokinase (GK) enzyme (10 uM compound) is 366%.
In the case of `Cc1nnc(-c2ccc(Oc3cc(OC4CCN(C5CCCCC5)C4=O)cc(C(=O)Nc4nccs4)c3)cc2)o1` (stereo not drawn) [Example 36, 3((1-Cyclohexyl-2-oxopyrrolidin-3-yl)oxy)-5-(4-(5-methyl-1,3,4-oxadiazol-2-yl)phenoxy)-N-(thiazol-2-yl)benzamide], the activity at 0.1 µM on glucokinase (GK) enzyme (0.1 uM compound) came to 133%. Besides, the activity at 1 µM on glucokinase (GK) enzyme (1 uM compound) was 177%. In addition, at glucokinase (GK) enzyme (5 uM compound), the activity at 5 µM stood at 254%. The activity at 10 µM at glucokinase (GK) enzyme (10 uM compound) is 225%.
Regarding `Cc1nnc(-c2ccc(Oc3cc(OC4CCN(C)C4=O)cc(C(=O)Nc4nc(-c5ccccc5)cs4)c3)cc2)o1` (stereo not drawn) [Example 37, 3-(4-(5-Methyl-1,3,4-oxadiazol-2-yl)phenoxy)-5-((1-methyl-2-oxopyrrolidin-3-yl)oxy)-N-(4-phenylthiazol-2-yl)benzamide], the “% change in glucose levels Vs Control” value is reported as 11.9 ± 8.2% in the experiment with Male C57 mice (0 min Vs −30 min), −26.5 ± 12.8% in the experiment with Male C57 mice (30 min Vs −30 min), −43.5 ± 3.8% in the experiment with Male C57 mice (60 min Vs −30 min) and −24.9 ± 5.3% in the experiment with Male C57 mice (120 min Vs −30 min). The “% change … Mean” value in the experiment with Male C57 mice was −17.0%. The activity at 0.1 µM at glucokinase (GK) enzyme (0.1 uM compound) amounted to 107%. Also, at glucokinase (GK) enzyme (1 uM compound), the activity at 1 µM worked out at 151%. Also, at glucokinase (GK) enzyme (5 uM compound), the activity at 5 µM was determined as 290%. At glucokinase (GK) enzyme (10 uM compound), the activity at 10 µM was found to be 329%.
As to `Cc1nnc(-c2ccc(Oc3cc(OC4CCN(C)C4=O)cc(C(=O)Nc4ncc(Br)s4)c3)cc2)o1` (stereo not drawn) [Example 38, N-(5-Bromothiazol-2-yl)-3-(4-(5-methyl-1,3,4-oxadiazol-2-yl)phenoxy)-5-((1-methyl-2-oxopyrrolidin-3-yl)oxy)benzamide], the activity at 0.1 µM at glucokinase (GK) enzyme (0.1 uM compound) was 150%. At glucokinase (GK) enzyme (1 uM compound), the activity at 1 µM turned out to be 205%. The activity at 5 µM at glucokinase (GK) enzyme (5 uM compound) stood at 252%. On glucokinase (GK) enzyme (10 uM compound), the activity at 10 µM was found to be 256%.
For `Cc1nnc(-c2ccc(Oc3cc(OC4CCN(C)C4=O)cc(C(=O)Nc4ncccc4O)c3)cc2)o1` (stereo not drawn) [Example 39, N-(3-hydroxypyridin-2-yl)-3-(4-(5-methyl-1,3,4-oxadiazol-2-yl)phenoxy)-5-((1-methyl-2-oxopyrrolidin-3-yl)oxy)benzamide], in that order: 151%, 179%, 215% and 262%.
For “(S)-3-(4-(5-methyl-1,3,4-oxadiazol-2-yl)phenoxy)-5-((2-oxopyrrolidin-3-yl)oxy)-N-(thiazol-2-yl)benzamide [Example 70]”, the “% of GK activity wrt DMSO” value at glucokinase (GK) enzyme (0.1 uM compound) came to 238.3%; at glucokinase (GK) enzyme (1 uM compound) it was 315.1%; at glucokinase (GK) enzyme (5 uM compound) it was 318.4%; at glucokinase (GK) enzyme (10 uM compound), 325.6%.
